From PubChem BioAssay AID1963979 (Molecular Pharmacology Branch, DTP, NCI, 2024)

Tested on: 361931-004-R-J1-PDC multicell spheroid viability
Assay: Anticancer human tumor 361931-004-R-J1-PDC patient-derived colon adenocarcinoma cell line growth inhibition [PI3K]
Details: for viability, T/C: stronger effect = lower value
Summary of the method: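 Viability of mixed-cell spheroids was determined after exposure to pairwise combinations, one partner being inavolisib, alpelisib, duvelisib or copanlisib. Highest tested concentration matched clinical Cmax where known and 10 microM where not, descending in half-log steps.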

[1] = curve of first compound, second compound 0.0316 µM
[2] = curve of first compound, second compound 0.1 µM
[3] = curve of first compound, second compound 0.316 µM
[4] = curve of first compound, second compound 1 µM
[5] = curve of first compound, second compound 3.16 µM
[6] = curve of first compound, second compound 10 µM
[7] = second compound 0.0316 µM, first compound 0.0316 µM
[8] = second compound 0.0316 µM, first compound 0.1 µM
[9] = second compound 0.0316 µM, first compound 0.316 µM
[10] = second compound 0.0316 µM, first compound 1 µM
[11] = second compound 0.0316 µM, first compound 3.16 µM
[12] = second compound 0.0316 µM, first compound 10 µM
[13] = second compound 0.1 µM, first compound 0.0316 µM
[14] = second compound 0.1 µM, first compound 0.1 µM
[15] = second compound 0.1 µM, first compound 0.316 µM
[16] = second compound 0.1 µM, first compound 1 µM
[17] = second compound 0.1 µM, first compound 3.16 µM
[18] = second compound 0.1 µM, first compound 10 µM
[19] = second compound 0.316 µM, first compound 0.0316 µM
[20] = second compound 0.316 µM, first compound 0.1 µM
[21] = second compound 0.316 µM, first compound 0.316 µM
[22] = second compound 0.316 µM, first compound 1 µM
[23] = second compound 0.316 µM, first compound 3.16 µM
[24] = second compound 0.316 µM, first compound 10 µM
[25] = second compound 1 µM, first compound 0.0316 µM
[26] = second compound 1 µM, first compound 0.1 µM
[27] = second compound 1 µM, first compound 0.316 µM
[28] = second compound 1 µM, first compound 1 µM
[29] = second compound 1 µM, first compound 3.16 µM
[30] = second compound 1 µM, first compound 10 µM
[31] = second compound 3.16 µM, first compound 0.0316 µM
[32] = second compound 3.16 µM, first compound 0.1 µM
[33] = second compound 3.16 µM, first compound 0.316 µM
[34] = second compound 3.16 µM, first compound 1 µM
[35] = second compound 3.16 µM, first compound 3.16 µM
[36] = second compound 3.16 µM, first compound 10 µM
[37] = second compound 10 µM, first compound 0.0316 µM
[38] = second compound 10 µM, first compound 0.1 µM
[39] = second compound 10 µM, first compound 0.316 µM
[40] = second compound 10 µM, first compound 1 µM
[41] = second compound 10 µM, first compound 3.16 µM
[42] = second compound 10 µM, first compound 10 µM
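Further: spheroids exposed to agents for seven days before readout.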

CC(C)NCC(C(=O)N1CCN(c2ncnc3c2C(C)CC3O)CC1)c1ccc(Cl)cc1 (configuration not stated) + CC(Nc1ncnc2nc[nH]c12)c1cc2cccc(Cl)c2c(=O)n1-c1ccccc1
IC50 [1]: 3.51 µM
IC50 [2]: 3.26 µM
IC50 [3]: 2.91 µM
IC50 [4]: 4.19 µM
IC50 [5]: 2.99 µM
IC50 [6]: 3.19 µM
viability, T/C [7]: 99.7%
viability, T/C [8]: 97.3%
viability, T/C [9]: 99%
viability, T/C [10]: 78%
viability, T/C [11]: 52.6%
viability, T/C [12]: 34.3%
viability, T/C [13]: 104%
viability, T/C [14]: 99.3%
viability, T/C [15]: 99.8%
viability, T/C [16]: 81.3%
viability, T/C [17]: 50.8%
viability, T/C [18]: 31.7%
viability, T/C [19]: 101%
viability, T/C [20]: 104%
viability, T/C [21]: 94%
viability, T/C [22]: 79.1%
viability, T/C [23]: 47.4%
viability, T/C [24]: 29.8%
viability, T/C [25]: 106%
viability, T/C [26]: 104%
viability, T/C [27]: 95%
viability, T/C [28]: 86.1%
viability, T/C [29]: 54.8%
viability, T/C [30]: 31.9%
viability, T/C [31]: 105%
viability, T/C [32]: 107%
viability, T/C [33]: 98.3%
viability, T/C [34]: 79.6%
viability, T/C [35]: 48.6%
viability, T/C [36]: 26.8%
viability, T/C [37]: 106%
viability, T/C [38]: 93.9%
viability, T/C [39]: 102%
viability, T/C [40]: 76.7%
viability, T/C [41]: 51.5%
viability, T/C [42]: 26.7%

CC(C)n1nc(-c2ccc3oc(N)nc3c2)c2c(N)ncnc21 + CC(Nc1ncnc2nc[nH]c12)c1cc2cccc(Cl)c2c(=O)n1-c1ccccc1
IC50 [1]: > 0.1 µM
IC50 [2]: > 0.1 µM
IC50 [3]: > 0.1 µM
IC50 [4]: > 0.1 µM
IC50 [5]: > 0.1 µM
IC50 [6]: > 0.1 µM
viability, T/C (second compound 0.0316 µM, first compound 0.000316 µM): 103%
viability, T/C (second compound 0.0316 µM, first compound 0.001 µM): 107%
viability, T/C (second compound 0.0316 µM, first compound 0.00316 µM): 105%
viability, T/C (second compound 0.0316 µM, first compound 0.01 µM): 104%
viability, T/C [7]: 108%
viability, T/C [8]: 77.9%
viability, T/C (second compound 0.1 µM, first compound 0.000316 µM): 111%
viability, T/C (second compound 0.1 µM, first compound 0.001 µM): 106%
viability, T/C (second compound 0.1 µM, first compound 0.00316 µM): 104%
viability, T/C (second compound 0.1 µM, first compound 0.01 µM): 99.1%
viability, T/C [13]: 107%
viability, T/C [14]: 81.5%
viability, T/C (second compound 0.316 µM, first compound 0.000316 µM): 98.2%
viability, T/C (second compound 0.316 µM, first compound 0.001 µM): 103%
viability, T/C (second compound 0.316 µM, first compound 0.00316 µM): 108%
viability, T/C (second compound 0.316 µM, first compound 0.01 µM): 109%
viability, T/C [19]: 115%
viability, T/C [20]: 74.8%
viability, T/C (second compound 1 µM, first compound 0.000316 µM): 97.4%
viability, T/C (second compound 1 µM, first compound 0.001 µM): 105%
viability, T/C (second compound 1 µM, first compound 0.00316 µM): 104%
viability, T/C (second compound 1 µM, first compound 0.01 µM): 107%
viability, T/C [25]: 105%
viability, T/C [26]: 72.3%
viability, T/C (second compound 3.16 µM, first compound 0.000316 µM): 109%
viability, T/C (second compound 3.16 µM, first compound 0.001 µM): 106%
viability, T/C (second compound 3.16 µM, first compound 0.00316 µM): 100%
viability, T/C (second compound 3.16 µM, first compound 0.01 µM): 96.2%
viability, T/C [31]: 100%
viability, T/C [32]: 72.4%
viability, T/C (second compound 10 µM, first compound 0.000316 µM): 107%
viability, T/C (second compound 10 µM, first compound 0.001 µM): 107%
viability, T/C (second compound 10 µM, first compound 0.00316 µM): 107%
viability, T/C (second compound 10 µM, first compound 0.01 µM): 104%
viability, T/C [37]: 103%
viability, T/C [38]: 63.5%

CC1(C)CCC(Nc2ncc(C(F)(F)F)c(-c3c[nH]c4c(P(C)(C)=O)c(C#N)ccc34)n2)CN1 (configuration not stated) + Cc1nc(NC(=O)N2CCCC2C(N)=O)sc1-c1ccnc(C(C)(C)C(F)(F)F)c1
IC50 [1]: 4.5 µM
IC50 [2]: 3.7 µM
IC50 [3]: 4.24 µM
IC50 [4]: 4.32 µM
IC50 [5]: 2.72 µM
IC50 [6]: < 0.0316 µM
viability, T/C [7]: 97.1%
viability, T/C [8]: 82.6%
viability, T/C [9]: 79.9%
viability, T/C [10]: 79.9%
viability, T/C [11]: 71.3%
viability, T/C [12]: 5.89%
viability, T/C [13]: 101%
viability, T/C [14]: 92.8%
viability, T/C [15]: 84.9%
viability, T/C [16]: 78.5%
viability, T/C [17]: 59.7%
viability, T/C [18]: 7.04%
viability, T/C [19]: 89.8%
viability, T/C [20]: 84.4%
viability, T/C [21]: 74.8%
viability, T/C [22]: 70.6%
viability, T/C [23]: 69.1%
viability, T/C [24]: 5.97%
viability, T/C [25]: 76.5%
viability, T/C [26]: 68.6%
viability, T/C [27]: 65.2%
viability, T/C [28]: 80.4%
viability, T/C [29]: 65.8%
viability, T/C [30]: 6.15%
viability, T/C [31]: 73.5%
viability, T/C [32]: 62.5%
viability, T/C [33]: 59.5%
viability, T/C [34]: 57.5%
viability, T/C [35]: 51.4%
viability, T/C [36]: 4.43%
viability, T/C [37]: 49.1%
viability, T/C [38]: 51.9%
viability, T/C [39]: 44.9%
viability, T/C [40]: 44.1%
viability, T/C [41]: 39.5%
viability, T/C [42]: 1.98%

Cn1ncnc1[C@H]1c2n[nH]c(=O)c3cc(F)cc(c23)N[C@@H]1c1ccc(F)cc1
viability, T/C (compound 0.000316 µM): 103% [middle of 4 runs]
viability, T/C (compound 0.001 µM): 99.7% [middle of 4 runs]
viability, T/C (compound 0.00316 µM): 96.5% [middle of 4 runs]
viability, T/C (compound 0.01 µM): 101% [middle of 4 runs]
viability, T/C (compound 0.0316 µM): 102% [middle of 4 runs]
IC50 (curve of compound): > 0.1 µM
